Reference: PubChem BioAssay (NCI)
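All cell lines were grown in 96-well plates and treated with compound for 48 hours. GI50: concentration for 50% inhibition of growth. The concentration for full growth arrest is given as TGI.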

Tests used:
Assay in all cases: DTP human tumour cell line panel, 48 h
OVCAR-3 ovarian = test system: OVCAR-3 ovarian
MOLT-4 leukemia = test system: MOLT-4 leukemia
HT29 colon = test system: HT29 colon
OVCAR-5 ovarian = test system: OVCAR-5 ovarian
NCI-H226 lung = test system: NCI-H226 lung
K-562 leukemia = test system: K-562 leukemia
A498 renal = test system: A498 renal
T-47D breast = test system: T-47D breast
786-0 renal = test system: 786-0 renal
DMS 273 small cell lung = test system: DMS 273 small cell lung
DMS 114 small cell lung = test system: DMS 114 small cell lung
M19-MEL melanoma = test system: M19-MEL melanoma

Row | Compound | TGI (OVCAR-3 ovarian) | TGI (MOLT-4 leukemia) | TGI (HT29 colon) | TGI (OVCAR-5 ovarian) | TGI (NCI-H226 lung) | TGI (K-562 leukemia) | TGI (A498 renal) | TGI (T-47D breast) | TGI (786-0 renal) | TGI (DMS 273 small cell lung) | TGI (DMS 114 small cell lung) | TGI (M19-MEL melanoma) | GI50 (OVCAR-3 ovarian) | GI50 (MOLT-4 leukemia) | GI50 (HT29 colon) | GI50 (OVCAR-5 ovarian) | GI50 (NCI-H226 lung) | GI50 (K-562 leukemia) | GI50 (A498 renal) | GI50 (T-47D breast)
1 | CO/C=C(/C(=O)OC)c1ccccc1[C@@H]1CC1c1cccc(F)c1 (some centres not stated) | > 100 µM | > 100 µM | > 100 µM | > 100 µM | > 100 µM | > 100 µM | 95.9 µM | > 100 µM | > 100 µM |  |  |  |  |  |  |  |  |  |  | 
2 | Cc1nc2c(n1C)C(=O)c1nc(CBr)[nH]c(=O)c1C2=O |  | > 100 µM | > 100 µM |  |  | > 100 µM | > 100 µM |  |  | > 100 µM | > 100 µM | > 100 µM |  |  |  |  |  |  |  | 
3 | Cc1cccc2cc3c(ccc4ccccc43)c[n+]12 | 16.9 µM | > 100 µM | > 100 µM | > 100 µM |  | > 100 µM |  |  | > 100 µM |  |  |  |  |  |  |  |  |  |  | 
4 | N#Cc1c(NC(=S)Nc2ccc(Cl)cc2)sc2c1CCCC2 | > 100 µM | 33.8 µM | > 100 µM | > 100 µM | > 100 µM | > 100 µM | > 100 µM | > 100 µM |  |  |  |  |  |  |  |  |  |  |  | 
5 | COc1ccc2c(c1)CCN=C2Cc1cc(OC)c(OC)cc1CCCl | > 100 µM | > 100 µM | > 100 µM | > 100 µM | > 100 µM | > 100 µM |  | > 100 µM |  |  |  |  |  |  |  |  |  |  |  | 
6 | CC(=O)Oc1c(C)c2c(O)c3c1C1=C(OCOC1=C(C)C3=O)/C(C)=C\C(C)(O)C(O)C(C)C(O)C1C(=O)OC(C(C)C1O)C(C)(O)/C=C/C=C(C)C(=O)N2 (configuration not stated) | > 100 µM | > 100 µM | > 100 µM | 88.5 µM | 75.7 µM | > 100 µM | > 100 µM | > 100 µM | > 100 µM |  |  |  |  |  |  |  |  |  |  | 
7 | CN(C)c1nc(N(C)C)nc(N(C)CN(C)c2ccc(Cl)cc2)n1 | > 100 µM | > 100 µM | > 100 µM |  | > 100 µM | > 100 µM |  |  |  | > 100 µM | > 100 µM | > 100 µM |  |  |  |  |  |  |  | 
8 | O=C(C[C@H](NC(=O)OCc1ccccc1)C(=O)NC1Cc2ccccc2OC1=O)OCc1ccccc1 (some centres not stated) | > 100 µM | > 100 µM |  | > 100 µM | > 100 µM | 49.2 µM | > 100 µM | > 100 µM |  |  |  |  |  |  |  |  |  |  |  | 
9 | CCOC(=O)C[C@@H]1C2(C=C[C@@]13CO3)OCC(C)(C)CO2 | > 100 µM | > 100 µM | > 100 µM | > 100 µM | > 100 µM | > 100 µM | > 100 µM | > 100 µM |  |  |  |  |  |  |  |  |  |  |  | 
10 | CN(c1cc2ncc(=O)[nH]c2cc1NC(N)=NCc1ccc(Cl)cc1)C1CCCCC1 | 13.6 µM | 14.6 µM | 14.1 µM | 14.1 µM | 18 µM | 9.73 µM | 15.4 µM | 17 µM |  |  |  |  | 6.78 µM | 6.59 µM | 5.03 µM | 6.58 µM | 8.1 µM | 2.38 µM | 8.04 µM | 5.82 µM
11 | CC(C)(C)OC(=O)NCC(=O)NC1c2ccsc2/C(=N/O)[C@H]1O (some centres not stated) | > 100 µM | > 100 µM | > 100 µM | > 100 µM | > 100 µM | > 100 µM | > 100 µM | > 100 µM |  |  |  |  |  |  |  |  |  |  |  | 
12 | CCN(CC)CCCC(C)Nc1ccnc2cc3ccccc3cc12 (configuration not stated) | > 100 µM | > 100 µM |  | > 100 µM | > 100 µM | > 100 µM | 39.9 µM | 89.7 µM | > 100 µM |  |  |  |  |  |  |  |  |  |  | 
13 | CCN1C=C/C(=C\C=C/c2cc[n+](CC)c3ccccc23)c2ccccc21 | 6.81 µM | 19.7 µM | 13.8 µM | 15.1 µM | 16 µM |  | 8.78 µM | 28 µM | 18.2 µM |  |  |  |  |  |  |  |  |  |  | 
14 | CC(C)CCC[C@@H](C)[C@H]1CC[C@H]2[C@@H]3CC[C@H]4C[C@H](N)CC[C@]4(C)[C@H]3CC[C@]12C | > 100 µM | > 100 µM | 54.3 µM | 36.7 µM | 49.2 µM | > 100 µM | 57.5 µM | > 100 µM | > 100 µM |  |  |  |  |  |  |  |  |  |  | 
15 | CCCCCCCCCCCCCCCc1ccc(OCC(O)CO)cc1 (configuration not stated) | 49.3 µM | > 100 µM | 46.1 µM | > 100 µM | 58.5 µM | > 100 µM | > 100 µM |  |  | 33.3 µM | 68.3 µM | 33.4 µM |  |  |  |  |  |  |  | 
16 | COc1ccc(C2CC(c3cccc(Nc4ccncc4)c3)=NN2c2ccc(Cl)cc2)cc1 (configuration not stated) | 3.15 µM | 4.1 µM |  | 3.68 µM | 7.73 µM | 4.37 µM | 8.16 µM |  |  |  |  |  | 1.67 µM | 1.81 µM |  | 1.76 µM | 2.27 µM | 1.6 µM | 1.52 µM | 
17 | O=c1cc(-c2ccc(O)cc2)n(C2CC2)c2ccccc12 | 16.8 µM | > 100 µM | 9.25 µM | 19.4 µM | 16.4 µM | > 100 µM |  | 20.7 µM | 17.1 µM |  |  |  |  |  |  |  |  |  |  | 
18 | c1ccc(C2CC(c3cccc(Nc4ccncc4)c3)=NN2c2ccccc2)cc1 (configuration not stated) | 3.54 µM | 4.83 µM | 3.49 µM | 3.65 µM | 28.7 µM | 6.76 µM | 3.03 µM | 4.7 µM |  |  |  |  | 1.8 µM | 2.02 µM | 1.69 µM | 1.83 µM | 8.39 µM | 2.02 µM | 1.42 µM | 2 µM
19 | O=Cc1cc([N+](=O)[O-])no1 | > 100 µM | 81.5 µM | 61.6 µM | > 100 µM | > 100 µM | 38.6 µM | > 100 µM | > 100 µM |  |  |  |  |  |  |  |  |  |  |  | 
